Experimental data taken from PubChem BioAssay AID2202554 (NIEHS Division of Translational Toxicology (DTT)).
Inconclusive results are not listed. The source made the active and inactive calls. No rule for the calls is given here.

These compounds were tested on S. typhimurium/E. coli reverse mutation, colony counts (assay: Bacterial reverse mutation test (aka Ames test) summary data).
Method in brief: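 S. typhimurium his⁻ strains (TA97–TA1538) and E. coli WP2 uvrA pKM101 trp⁻, dosed over a range with or without rat, hamster or mouse liver S9. Preincubated 20 min at 37° C (or plate incorporation), plated in agar, incubated usually two days. Revertant colonies counted against negative controls.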
For `Cc1cc(C)cc(O)c1`, the outcome was “inactive; negative”.
For `N[C@@H](Cc1ccc(N(CCCl)CCCl)cc1)C(=O)O`, the outcome was “active; positive”.
`OC1C2(Cl)C3(Cl)C4(Cl)C(Cl)(Cl)C5(Cl)C3(Cl)C1(Cl)C5(Cl)C24Cl` (centres undefined) was tested, and the outcome was “inactive; negative”.
`C=CCc1ccc2c(c1)OCO2` was tested, and the outcome was “inactive; negative”.
For `Cn1c(-c2ccccc2)c(N=Nc2scc[n+]2C)c2ccccc21`, the outcome was “active; positive”.
`Oc1cc(Cl)c(Cl)c(Cl)c1` was tested, and the outcome was “inactive; negative”.
With `O=[N+]([O-])c1ccccc1Nc1ccccc1` the outcome was “inactive; negative”.
With `O=S(=O)(O)C(F)(F)C(F)(F)C(F)(F)C(F)(F)C(F)(F)C(F)(F)C(F)(F)C(F)(F)F` the outcome was “inactive; negative”.
For `N[C@@H](CCC(=O)O)C(=O)O`, the outcome was “inactive; negative”.
For `[O]=[W](=[O])=[O]`, the outcome was “inactive; negative”.
With `c1ccc(Nc2ccc(Nc3ccccc3)cc2)cc1` the outcome was “active; positive”.
In the case of `CCCCC1C(=O)N(c2ccccc2)N(c2ccccc2)C1=O`, the outcome is reported as “inactive; negative”.
`C[CH2][Hg][S]c1ccccc1C(=O)O` was tested, and the outcome was “inactive; negative”.
For `CC(C)CN`, the outcome was “inactive; negative”.
`NC(=S)Nc1ccccc1` was tested, and the outcome was “inactive; negative”.
With `Cc1cc(-c2ccc(N)c(C)c2)ccc1N` the outcome was “active; positive”.
In the case of `Cn1cnc2c1c(=O)[nH]c(=O)n2C`, the outcome is reported as “inactive; negative”.
For `Cc1ccc2c(ccc3ccccc32)c1`, the outcome was “active; positive”.
With `Cc1c(C)c2c(c(C)c1OC(=O)CCC(=O)O)CC[C@@](C)(CCC[C@H](C)CCC[C@H](C)CCCC(C)C)O2` the outcome was “inactive; negative”.
With `COc1ccc2cc3[n+](cc2c1OC)CCc1cc2c(cc1-3)OCO2` the outcome was “inactive; negative”.
For `Nc1c2ccccc2nc2ccccc12`, the outcome was “active; positive”.
In the case of `c1ccc2c(c1)ccc1cc3c(ccc4ccccc43)cc12`, the outcome is reported as “active; positive”.
`Cc1cc(=O)oc2cc(O)ccc12` was tested, and the outcome was “inactive; negative”.
With `O=C1C=CC(=O)C=C1` the outcome was “inactive; negative”.
`Oc1ccc(/C=C/c2cc(O)cc(O)c2)cc1` was tested, and the outcome was “inactive; negative”.
With `Oc1ccccc1Cl` the outcome was “inactive; negative”.
With `Nc1cc(Cl)cc(Cl)c1` the outcome was “inactive; negative”.
With `O=C1C(c2[nH]c3ccccc3c2O)=Nc2ccccc21` the outcome was “active; positive”.
With `C=C(C)C(=O)OCC(C)C` the outcome was “inactive; negative”.
With `Cc1cccc(O)c1C` the outcome was “inactive; negative”.
For `c1ccc(-c2ccccc2)cc1`, the outcome was “inactive; negative”.
`CCCCC(CC)CNCC(CC)CCCC` (centres undefined) was tested, and the outcome was “inactive; negative”.
With `N#CCCl` the outcome was “inactive; negative”.
For `C=C(C)[C@H]1CC=C(C)C(=O)C1`, the outcome was “inactive; negative”.
With `Oc1c(Cl)c(Cl)c(Cl)c(Cl)c1Cl` the outcome was “inactive; negative”.
`Cc1ccc(NC(N)=O)cc1` was tested, and the outcome was “inactive; negative”.
For `COC(F)(F)C(Cl)Cl`, the outcome was “inactive; negative”.
With `Brc1c(Br)c(Br)c(Br)c(Br)c1Br` the outcome was “inactive; negative”.
In the case of `Nc1ccc(-c2ccc(N)cc2)cc1`, the outcome is reported as “active; positive”.
`CCC(O)CN` (centres undefined) was tested, and the outcome was “inactive; negative”.
`Cc1cc(O)c(C(C)(C)C)cc1Sc1cc(C(C)(C)C)c(O)cc1C` was tested, and the outcome was “inactive; negative”.
For `c1ccc(NNc2ccccc2)cc1`, the outcome was “active; positive”.
With `CC(=O)c1c(=O)cc(C)oc1=O` the outcome was “inactive; negative”.
`CC(=O)O[C@H](CC(=O)[O-])C[N+](C)(C)C` was tested, and the outcome was “inactive; negative”.
In the case of `O=C(O)C1C(C(=O)O)C2(Cl)C(Cl)=C(Cl)C1(Cl)C2(Cl)Cl` (centres undefined), the outcome is reported as “inactive; negative”.
For `CNC(=O)NC`, the outcome was “inactive; negative”.
For `Clc1ccccc1`, the outcome was “inactive; negative”.
With `CC(C)(C)OO` the outcome was “active; positive”.
In the case of `CC1(C)S[C@@H]2[C@H](NC(=O)[C@H](N)c3ccccc3)C(=O)N2[C@H]1C(=O)O`, the outcome is reported as “inactive; negative”.
`Oc1cccc(O)c1` was tested, and the outcome was “inactive; negative”.
With `O=Cc1ccccc1Cl` the outcome was “inactive; negative”.
`CCCCCCCCOC(=O)c1ccccc1C(=O)OCCCCCCCC` was tested, and the outcome was “inactive; negative”.
With `CCCC(C)=O` the outcome was “inactive; negative”.
`NCCCN` was tested, and the outcome was “inactive; negative”.
In the case of `c1ccc(Nc2ccccc2)cc1`, the outcome is reported as “inactive; negative”.
With `C[N+](C)(C)CCCl` the outcome was “inactive; negative”.
With `CCCCC(CC)CN` (centres undefined) the outcome was “inactive; negative”.
With `O=[N+]([O-])c1c2ccccc2cc2ccccc12` the outcome was “active; positive”.
`CN(C)P(=O)(N(C)C)N(C)C` was tested, and the outcome was “inactive; negative”.
With `C=CC(=O)OCC(C)C` the outcome was “inactive; negative”.
`COC(=O)Nc1cccc(OC(=O)Nc2cccc(C)c2)c1` was tested, and the outcome was “active; positive”.
`O=C(O)c1ccc(Cl)c(Cl)c1` was tested, and the outcome was “inactive; negative”.
In the case of `CN(C)CCOC(C)(c1ccccc1)c1ccccn1` (centres undefined), the outcome is reported as “inactive; negative”.
With `Cc1ccc(N=Nc2c(O)c(S(=O)(=O)O)cc3ccc(S(=O)(=O)O)cc23)c(C)c1` the outcome was “active; weakly positive”.
`O=C1NC(=O)C(O)(O)C(=O)N1` was tested, and the outcome was “inactive; negative”.
With `O=CC(Cl)(Cl)Cl` the outcome was “active; weakly positive”.
For `C[C@@H]1C[C@@H]([C@H](O)CC2CC(=O)NC(=O)C2)C(=O)[C@@H](C)C1`, the outcome was “inactive; negative”.
For `Clc1cccc2ccccc12`, the outcome was “active; weakly positive”.
`CC(=O)OO` was tested, and the outcome was “inactive; negative”.
For `Nc1nc2ncc(CNc3ccc(C(=O)N[C@@H](CCC(=O)O)C(=O)O)cc3)nc2c(=O)[nH]1`, the outcome was “inactive; negative”.
In the case of `CCCNC(=O)NS(=O)(=O)c1ccc(Cl)cc1`, the outcome is reported as “inactive; negative”.
For `Nc1nc(-c2ccccc2)cs1`, the outcome was “active; positive”.
For `CCCCCCCCn1sccc1=O`, the outcome was “inactive; negative”.
With `CCCCCCCCCCCCCCCCCCCCCCCCCCCCO` the outcome was “inactive; negative”.
With `CC(C)C(C)(C)C(C)(C)C(C)(C)S` the outcome was “inactive; negative”.
With `Nc1ccc2cc(S(=O)(=O)O)c(N=Nc3ccc(-c4ccc(N=Nc5c(S(=O)(=O)O)cc6cc(S(=O)(=O)O)cc(N)c6c5O)cc4)cc3)c(O)c2c1` the outcome was “active; positive”.
In the case of `O=Cc1ccccc1C=O`, the outcome is reported as “active; positive”.
In the case of `c1ccc2c(c1)c1cccc3ccc4cccc2c4c31`, the outcome is reported as “active; positive”.
For `O=[N+]([O-])c1cc(C(F)(F)F)cc([N+](=O)[O-])c1Cl`, the outcome was “inactive; negative”.
With `COCCOCCOC` the outcome was “inactive; negative”.
For `CC(=O)CC(C)C`, the outcome was “inactive; negative”.
In the case of `CC(C)Cc1nccs1`, the outcome is reported as “active; positive”.
`CCOC(=O)C1OC1(C)c1ccccc1` (centres undefined) was tested, and the outcome was “inactive; negative”.
For `O=C1OC(=O)c2c(Cl)c(Cl)c(Cl)c(Cl)c21`, the outcome was “inactive; negative”.
In the case of `Cc1cccc(C(=O)O)c1`, the outcome is reported as “inactive; negative”.
With `O=C([O-])c1ccccn1.O=C([O-])c1ccccn1.O=C([O-])c1ccccn1.[Cr+3]` the outcome was “inactive; negative”.
With `CN(C)CCN(Cc1cccs1)c1ccccn1` the outcome was “inactive; negative”.
In the case of `Clc1c(Cl)c(Cl)c2ccccc2c1Cl`, the outcome is reported as “inactive; negative”.
`C=CCCl` was tested, and the outcome was “active; positive”.
`COc1ccccc1C=CC=O` was tested, and the outcome was “active; weakly positive”.
In the case of `C=CCO`, the outcome is reported as “inactive; negative”.
For `CC(C)CON=O`, the outcome was “active; positive”.
With `CC/C=C\C/C=C\C/C=C\CCCCCCCC(=O)OCC` the outcome was “active; weakly positive”.
For `Cc1cccc([N+](=O)[O-])c1C`, the outcome was “active; positive”.
For `O=C1C(c2[nH]c3ccc(S(=O)(=O)O)cc3c2O)=Nc2ccc(S(=O)(=O)O)cc21`, the outcome was “active; positive”.
For `C=C(C)[C@H]1CC=C(C)CC1`, the outcome was “inactive; negative”.
In the case of `CC[C@H]1OC(=O)[C@H](C)[C@@H](O[C@H]2C[C@@](C)(OC)[C@@H](O)[C@H](C)O2)[C@H](C)[C@@H](O[C@@H]2O[C@H](C)C[C@H](N(C)C)[C@H]2O)[C@](C)(OC)C[C@@H](C)C(=O)[C@H](C)[C@@H](O)[C@]1(C)O`, the outcome is reported as “inactive; negative”.
In the case of `O=C(O)CBr`, the outcome is reported as “active; positive”.
For `Nc1ccc(-c2ccc(N)c(O)c2)cc1O`, the outcome was “active; positive”.
`[CH3][Sn]([Cl])([Cl])[Cl]` was tested, and the outcome was “inactive; negative”.
For `COc1ccc(N)c(OC)c1`, the outcome was “active; positive”.
`ClC(Cl)(Cl)CC1CO1` (centres undefined) was tested, and the outcome was “active; positive”.
`Cc1coc2c1CCC(C)C2` (centres undefined) was tested, and the outcome was “inactive; negative”.
In the case of `C=CC(=O)OCC(CC)(COC(=O)C=C)COC(=O)C=C`, the outcome is reported as “inactive; negative”.
`O=C(O)/C=C/C(=O)O` was tested, and the outcome was “inactive; negative”.
In the case of `FC(F)(F)C(F)(F)I`, the outcome is reported as “active; positive”.
For `c1ccc(N(c2ccccc2)c2ccccc2)cc1`, the outcome was “inactive; negative”.
In the case of `CN(C)C`, the outcome is reported as “inactive; negative”.
With `ClCC1CO1` (centres undefined) the outcome was “active; positive”.
With `C#C[C@]1(O)CC[C@H]2[C@@H]3CCc4cc(O)ccc4[C@H]3CC[C@@]21C` the outcome was “inactive; negative”.
With `Nc1ccccc1C(=O)OCC=Cc1ccccc1` the outcome was “inactive; negative”.
In the case of `FC(F)(F)C(Cl)Br` (centres undefined), the outcome is reported as “inactive; negative”.
`ClC(Cl)(Cl)C1CO1` (centres undefined) was tested, and the outcome was “active; positive”.
`Oc1ccc(Cl)cc1Cc1ccccc1` was tested, and the outcome was “inactive; negative”.
`O=P(O)(O)Oc1c[nH]c2ccccc12` was tested, and the outcome was “active; positive”.
`CC(CCC(=O)O)(c1ccc(O)cc1)c1ccc(O)cc1` was tested, and the outcome was “inactive; negative”.
With `O=C1Nc2ccc(Cl)cc2[C@@](C#CC2CC2)(C(F)(F)F)O1` the outcome was “inactive; negative”.
In the case of `[O-][n+]1ccccc1SSc1cccc[n+]1[O-]`, the outcome is reported as “inactive; negative”.
`ClC=CC[N+]12CN3CN(CN(C3)C1)C2` was tested, and the outcome was “active; weakly positive”.
With `NCCS(=O)(=O)O` the outcome was “inactive; negative”.
For `c1ccc2c(c1)CCCC2`, the outcome was “inactive; negative”.
With `CC(O)CCl` (centres undefined) the outcome was “active; positive”.
`COc1cc2c(c3oc(=O)c4c(c13)CCC4=O)[C@@H]1C=CO[C@@H]1O2` was tested, and the outcome was “active; positive”.
`O=c1c(O)c(-c2ccc(O)c(O)c2)oc2cc(O)cc(O)c12` was tested, and the outcome was “active; positive”.
